Results on 1 compound are retold here after patent US7053118B1, “Lactone compounds and methods of use” (Harbor Branch Oceanographic Institution, Inc., priority 2003, dated 2006).

What all share (type): cell-based
Assay [1] relates to P388 murine leukemia cell line. Nature of the assay: Antiproliferative MTT assay, P388 cell line. The settings on record: P-388 cells, 48-h exposure. The procedure: (§1) Extracts and compounds were analyzed as to their effects on proliferation of A549 human adenocarcinoma, PANC-1 human pancreatic and P388 murine leukemia cell lines. P388 cells were obtained from Dr. R. Camalier, National Cancer Institute, Bethesda, Md., and A549 and PANC-1 cells were obtained from American Type Culture Collection, Rockville, Md. All cell lines were maintained in Roswell Park Memorial Institute (RPMI) medium 1640 supplemented with 10% fetal bovine serum. All cell lines are cultured in plastic tissue culture flasks and kept in an incubator at 37° C. in humidified air containing 5% CO2. Prior to testing, antibiotic-free stock cultures of each of the cell lines were subcultured to 10^6 cells/ml by dilution in fresh growth medium at 2 to 3 day intervals.
To assess the antiproliferative effects of extracts and compounds against the P388 cell line, 200 μl cultures (96-well tissue culture plates, Nunc, Denmark) are established at 1×10^5 cells/ml in drug-free medium or medium containing the test agent at 10.0, 1.0, 0.10 and 0.010 μg/ml. Solvent for all dilutions ethanol. All experimental cultures are initiated in medium containing Gentamycin sulfate (50 μg/ml; Schering Corporation, Kenilworth, N.J.). […]

The subject of assay [2] is PANC-1 human pancreatic cell line. Nature of the assay: Antiproliferative MTT assay, PANC-1 cell line. The settings on record: PANC-1 cells, additional 48 hr exposure prior to MTT addition. The procedure:
as §1
(§2) To assess the antiproliferative effects of extracts and compounds against the P388 cell line, 200 μl cultures (96-well tissue culture plates, Nunc, Denmark) are established at 1×10^5 cells/ml in drug-free medium or medium containing the test agent at 10.0, 1.0, 0.10 and 0.010 μg/ml. Solvent for all dilutions ethanol. […]
(§3) Similar procedures are utilized for A549 and PANC-1 cells which require an additional 48 hr exposure prior to MTT addition. Results are expressed as percent inhibition compared to the negative (no drug) control. […]
On the technique in general: Tetrazolium dyes change colour on reduction, which living cells bring about.

Assay [3] has as its system A549 human adenocarcinoma cell line. Nature of the assay: Antiproliferative MTT assay, A549 cell line. The settings on record: A549 cells, additional 48 hr exposure prior to MTT addition. The protocol: as §1, §2, §3

Take `C=C1C[C@@](C)(/C=C/C=C/CCCCCCCC)OC1=O` [plakolide A]: the “Activity (IC50 μg/ml)” value in assay [1] was found to be 1.09 µg/mL; in assay [2] it was 3.78 µg/mL; in assay [3] it was 5.0 µg/mL.
